According to patent US20090088376A1, “DENDRIMER BASED COMPOSITIONS AND METHODS OF USING THE SAME” (priority 2007, published 2009):

Legend:
[1] = test system: KB cells; assay: Inhibition of cell growth (XTT assay / total cell protein); assay type: cell-based, human
Experimental: Cell culture and treatment.
Evaluation of dendrimer cytotoxicity. Cell growth was determined by assay of the total protein in lysates of treated cells using a bicinchoninic acid reagent (PIERCE, and by XTT assay, using a kit from Roche.
Because the binding of the conjugate to KB cells reaches maximal uptake within 1 h (Quintana et al, 2002. Pharmaceutical Research 19: 1310-1316.), the effect of the G5-FI-FA-MTX on cell growth was initially tested by pre-incubation of cells with the conjugate for 1 h, followed by incubation in a drug-free medium for 5 d. […] When the cells were pre-incubated with dendrimers for 4 h, there was a modest decrease of about 10% in cell growth as determined by XTT assay. The cytotoxicity measurements were therefore done by incubation with the dendrimer for a minimum of 24 h, a pre-incubation time period shown to induce significant cytotoxicity.
Time course and dose dependent inhibition of cell growth. Previous studies have shown that MTX-induced cytotoxicity is detectable in vitro only if the medium is completely deprived of FA (See, e.g., Sobrero & Bertino, Int. J. Cell Cloning 4, 51 (1986)). The effect of the trifunctional dendrimers on cell growth was tested in cells incubated in a FA-deficient medium. Cells were treated with 300 nM conjugates (equivalent of 1500 nM MTX) or 1500 nM free MTX for 1-4 days, and cell proliferation was determined by estimation of cellular protein content. Cells were treated for 2 days with different concentrations of the conjugates or free MTX (the conjugate concentration is given as MTX equivalents, with 5 MTX per dendrimer molecule). KB cells which express high and low FAR were incubated with 30 nM of the dendrimers for 1 hr at 37° C., rinsed, and the fluorescence of cells was determined by flow cytometric analysis (See. e.g., FIG. 21, left panel). Pre-incubation with 50 µM free FA for 30 min totally prevents cellular binding and uptake of the polymer conjugates (See. e.g., FIG. 21, left panel).
The inhibition of cell growth induced by the conjugates was also tested by XTT assay which is based on the conversion of XTT to formazan by the active mitochondria of live cells (See, e.g., Roehm et al, J Immunol Methods 142, 257 (1991)).

[2] = mouse, in vivo
Experimental: (§1) Twice weekly, SCID mice with s.c. KB xenografts, starting on day 4 after tumor implantation, received via the tail vein an injection of either targeted or nontargeted conjugate containing methotrexate, a conjugate without methotrexate, free methotrexate, or saline as a control. The compounds were delivered in a 0.2 mL volume of saline per 20 g of mouse. The single dose of methotrexate delivered each time equaled 0.33 mg/kg. The higher doses of 1.67 and 3.33 mg/kg free methotrexate were also tested. The conjugates were delivered at equimolar concentration of methotrexate calculated based on the number of methotrexate molecules present in a nanoparticle. The conjugate without methotrexate was delivered at equimolar concentration of dendrimer. In the initial trial, six groups of mice with five mice in each group received up to 15 injections. In the follow-up trial, mice received up to 28 injections dependent on their survival. The body weights of the mice were monitored throughout the experiment as an indication of adverse effects of the drug. Histopathology of multiple organs was done at the termination of each trial and each time mouse had to be euthanized due to toxic effects or tumor burden. Tissues from lung, heart, liver, pancreas, spleen, kidney, and tumor were analyzed.
(§2) At each time point, a gross examination and histopathology of the liver, spleen, kidney, lung, and heart were done.

[3] = Toxicity of dendrimer conjugates and free methotrexate (body weight, histopathology)
Experimental: as §1, §2

[4] = test system: SCC15 cells; assay: XTT cell proliferation assay; assay type: cell-based, human; settings: methotrexate 100 nM, G5-FI-EGF 100 nM, 3 days
Experimental: XTT assay. For cytotoxicity experiments, cells (2500 cells/well) were seeded in 96-well microtiter plates in DMEM containing 10% FCS. The cells were treated either with 100 nM each of the conjugates for 72 h. A calorimetric XTT assay, Roche Molecular Biochemicals (Indianapolis, Ind.) was performed following the vendor's protocol. After incubation with an XTT labeling mixture, microtiter plates were read on an ELISA reader (SYNERGY HT, BIOTEK) at 492 nm with the reference wavelength at 690 nm. Vehicle-treated cells were assigned a value of 100%.

[5] = test system: s.c. human KB xenografts; assay: Targeted drug delivery: tumor growth and survival; assay type: in vivo, SCID mice; settings: for effect on tumor growth: first trial
Experimental: Tumor cell line. The KB human cell line, which overexpresses the folate receptor (See, e.g., Turek et al, J Cell Sci 106, 423 (1993)), was purchased from the American Type Tissue Collection (Manassas, Va.) and maintained in vitro at 37° C., 5% CO2 in folate-deficient RPMI 1640 supplemented with penicillin (100 units/mL), streptomycin (100 μg/mL), and 10% heat-inactivated fetal bovine serum. Before injection in the mice, the cells were harvested with trypsin-EDTA solution, washed, and resuspended in PBS. The cell suspension (5×10^6 cells in 0.2 mL) was injected s.c. into one flank of each mouse using a 30-gauge needle. In the biodistribution studies, the tumors were allowed to grow for 2 weeks until reaching ˜0.9 cm^3 in volume. The formula chosen to compute tumor volume was for a standard volume of an ellipsoid, where V=4/3π(½ length×½ width×½ depth). With an assumption that width equals depth and […], the formula used was V=½×length×width^2. Targeted drug delivery using conjugate injections was started on the fourth day after implantation of the KB cells.
Delivery of targeted nanoparticle therapeutic.
Statistical methods. Means, SD, and SE of the data were calculated. Differences between the experimental groups and the control groups were tested using Student's-Newman-Keuls' test and Ps<0.05 were considered significant.
Targeted drug delivery to tumor cells through the folate receptor. The efficacy of different doses of conjugates was tested on SCID CB-17 mice bearing s.c. human KB xenografts and was compared with equivalent and higher doses of free methotrexate. Mice were maintained on the folic acid-deficient diet for 3 weeks before injection of the KB tumor cells to achieve circulating levels of folic acid that approach those in human serum and to prevent down-regulation of folate receptors on tumor xenografts (See, Mathias et al., J Nucl Med 29, 1579 (1998)). Six groups of SCID mice with five mice in each group were injected s.c. on one flank with 5×10^6 KB cells in 0.2 mL PBS suspension. The highest total dose of G5-FI-FA-MTX therapeutic used equals 55.0 mg/kg and is equivalent to a 5.0 mg/kg total cumulative dose of free methotrexate (FIG. 29). The therapeutic dose of the conjugate was compared with three cumulative doses of free methotrexate equivalent to 33.3, 21.7, and 5.0 mg/kg accumulated in 10 to 15 injections based on mouse survival. Saline and the conjugate without methotrexate (G5-FT-FA) were used as controls.

| Structure (SMILES) | reversal by free FA of growth-arrest caused by MTX ([1]; 150 nM FA, 150 nM MTX, 24 h then 6 d fresh medium, total cell protein) | increase of cell growth above control cells by excess free FA ([1]; 50 μM FA with MTX or G5-FITC-FA-MTX 24 h, then 5 days, XTT) | histopathology of the liver [2] | day of trial by which doses became lethal ([3]; cumulative doses 33.3 and 21.7 mg/kg) | toxicity ([3]; total accumulated dose equivalent to 5.0 mg/kg free methotrexate) | inhibition of cell growth ([1]; XTT assay, 1, 2 or 3 days) | growth inhibition of free MTX compared with conjugate ([1]; equimolar MTX, below 1 μM) | inhibition of cell growth in G5-FI-EGF-treated cells [4] | effect on tumor growth ([5]; cumulative 33.3 and 21.7 mg/kg) | effect on tumor growth ([5]; dose equivalent to 5.0 mg/kg cumulative methotrexate (or equimolar dendrimer)) | day of trial by which all mice died ([5]; second 99-day trial) | survivors at the termination of the trial ([5]; second 99-day trial) |
| --- | --- | --- | --- | --- | --- | --- | --- | --- | --- | --- | --- | --- |
| Nc1nc2ncc(CNc3ccc(C(=O)N[C@@H](CCC(=O)O)C(=O)O)cc3)nc2c(=O)[nH]1 [FA, folic acid] | almost completely reversed | 20% |  |  |  |  |  |  |  |  |  |  |
| CN(Cc1cnc2nc(N)nc(N)c2n1)c1ccc(C(=O)N[C@@H](CCC(=O)O)C(=O)O)cc1 [MTX, methotrexate] |  |  | advanced liver lesions, collections of inflammatory cells, and periportal inflammation | 32 to 36 days | nor free methotrexate at the same dose were toxic | time-dependent cytotoxicity | higher than with the equimolar concentrations of MTX in the G5-FITC-FA-MTX | inhibited cell growth in the G5-FI-EGF-treated cells to a greater extent than its inhibition of control cells | affecting tumor growth | no effect on tumor growth | ≤ 66 days | no mice surviving |
